Results as given in patent US8575135B2 (Gilead Sciences, Inc., priority 2011, dated 2013).
Like-named read-outs stand apart in the source and are kept apart here.

Columns and labels:
Assay in all cases: microbe, parasite or virus in culture
Conditions in all cases: Hepatitis C virus
[1] = tested on: stable HCV 1a RLuc replicon cells (genotype 1a H77 replicon); format: cell-based
[2] = tested on: stable HCV 2a JFH-1 Rluc replicon cells (L31 present in NS5A); format: cell-based
[3] = tested on: 1a Pi-Rluc replicon with Q30R in genotype 1a NS5A; format: cell-based, HCV
How it was run: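 Renilla luciferase replicon assay: 1a Pi-RLuc replicon carrying NS5A Q30R, transfected transiently into cured-51 (Huh-7-derived) cells.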

[4] = tested on: NS5A chimeric genotype 1b Con1 replicon with genotype 4a ED43 strain NS5A gene; format: cell-based, HCV
[5] = tested on: NS5A chimeric genotype 1b Con1 replicon with genotype 3a S52 strain NS5A gene; format: cell-based, HCV
How it was run: (§1)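 Con1-based 3a and 4a chimeras carried a Pi-RLuc reporter and were transiently transfected into Huh-Lunet cells; the JFH-1-based 2b chimera (RLuc-Neo) was used transiently or as stable replicon cells.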

[6] = tested on: NS5A chimeric genotype 2a JFH-1 replicon with genotype 2a J6 strain NS5A gene (M31 present); format: cell-based, HCV
[7] = tested on: NS5A chimeric genotype 2a JFH-1 replicon with genotype 2b MD2b-1 strain NS5A gene (M31 present); format: cell-based, HCV
How it was run: as §1

| SMILES | EC50 ([1]; read-out: 1a) | EC50 ([1]; read-out: 1a (nM)) | EC50 ([2]; read-out: 2a JFH) | EC50 ([2]; read-out: 2a JFH (nM)) | EC50 ([3]; read-out: 1a Q30R) | EC50 ([3]; read-out: 1a Q30R (nM)) | EC50 ([4]; read-out: 4a) | EC50 ([4]; read-out: 4a (s) (nM)) | EC50 ([4]; read-out: 4a (t) (nM)) | EC50 ([5]; read-out: 3a) | EC50 ([5]; read-out: 3a (nM)) | EC50 ([6]; read-out: 2a J6) | EC50 ([6]; read-out: 2a J6 (s) (nM)) | EC50 ([6]; read-out: 2a Jb (t) (nM)) | EC50 ([7]; read-out: 2b) | EC50 ([7]; read-out: 2b (s) (nM)) | EC50 ([7]; read-out: 2b (t) (nM)) |
| --- | --- | --- | --- | --- | --- | --- | --- | --- | --- | --- | --- | --- | --- | --- | --- | --- | --- |
| COC[C@H]1C[C@@H](c2nc3ccc4cc5c(cc4c3[nH]2)OCc2cc(-c3cnc([C@@H]4CCCN4C(=O)[C@@H](NC(=O)OC)C(C)C)[nH]3)ccc2-5)N(C(=O)[C@H](N)c2ccccc2)C1 [Example OO, Methyl {(2S)-1-[(2S)-2-(5-{2-[(2S,4S)-1-[(2R)-2-amino-2-phenylacetyl]-4-(methoxymethyl)pyrrolidin-2-yl]-1,11-dihydroisochromeno[4′,3′:6,7]naphtho[1,2-d]imidazol-9-yl}-1H-imidazol-2-yl)pyrrolidin-1-yl]-3-methyl-1-oxobutan-2-yl}carbamate] | < 1 nM | 0.072 nM | < 1 nM | 0.015 nM | < 1 nM | 0.139 nM | < 1 nM | 0.018 nM | 0.086 nM | < 1 nM | 0.028 nM | < 1 nM | 0.259 nM | 0.028 nM | < 1 nM | 0.076 nM | 0.02 nM |
| CCO[C@H]1C[C@@H](c2nc3ccc4cc5c(cc4c3[nH]2)OCc2cc(-c3cnc([C@@H]4CCCN4C(=O)[C@@H](NC(=O)OC)C(C)C)[nH]3)ccc2-5)N(C(=O)[C@@H](NC(=O)OC)C(C)C)C1 [Example OQ, Methyl {(2S)-1-[(2S)-2-(5-{2-[(2S,4S)-4-ethoxy-1-{(2S)-2-[(methoxycarbonyl)amino]-3-methylbutanoyl}pyrrolidin-2-yl]-1,11-dihydroisochromeno[4′,3′:6,7]naphtho[1,2-d]imidazol-9-yl}-1H-imidazol-2-yl)pyrrolidin-1-yl]-3-methyl-1-oxobutan-2-yl}carbamate] | < 1 nM | 0.015 nM | < 1 nM | 0.007 nM | < 1 nM | 0.102 nM | < 1 nM | 0.016 nM | 0.02 nM | < 1 nM | 0.048 nM | < 1 nM | 1.49 nM | 0.378 nM | < 1 nM | 0.982 nM | 0.265 nM |
| CCO[C@H]1C[C@@H](c2nc3ccc4cc5c(cc4c3[nH]2)OCc2cc(-c3cnc([C@@H]4CCCN4C(=O)[C@H](NC(=O)OC)c4ccccc4)[nH]3)ccc2-5)N(C(=O)[C@@H](NC(=O)OC)C(C)C)C1 [Example OR, Methyl {(1R)-2-[(2S)-2-(5-{2-[(2S,4S)-4-ethoxy-1-{(2S)-2-[(methoxycarbonyl)amino]-3-methylbutanoyl}pyrrolidin-2-yl]-1,11-dihydroisochromeno[4′,3′:6,7]naphtho[1,2-d]imidazol-9-yl}-1H-imidazol-2-yl)pyrrolidin-1-yl]-2-oxo-1-phenylethyl}carbamate] | < 1 nM | 0.03 nM | < 1 nM | 0.011 nM | < 1 nM | 0.059 nM | < 1 nM | 0.006 nM | 0.036 nM | < 1 nM | 0.031 nM | < 1 nM | 0.16 nM | 0.068 nM | < 1 nM | 0.109 nM | 0.037 nM |
| COC(=O)N[C@H](C(=O)N1C[C@@H](C)C[C@H]1c1nc2ccc3cc4c(cc3c2[nH]1)OCc1cc(-c2cnc([C@@H]3C[C@H](C)CN3C(=O)[C@H](NC(=O)OC)c3ccccc3)[nH]2)ccc1-4)C(C)C [Example PG, methyl {(1R)-2-[(2S,4S)-2-(5-{2-[(2S,4S)-1-{(2S)-2-[(methoxycarbonyl)amino]-3-methylbutanoyl}-4-methylpyrrolidin-2-yl]-1,11-dihydroisochromeno[4′,3′:6,7]naphtho[1,2-d]imidazol-9-yl}-1H-imidazol-2-yl)-4-methylpyrrolidin-1-yl]-2-oxo-1-phenylethyl}carbamate] | < 1 nM | 0.033 nM | < 1 nM | 0.018 nM | < 1 nM | 0.043 nM | < 1 nM | 0.008 nM | 0.063 nM | < 1 nM | 0.05 nM | < 1 nM | 0.335 nM | 0.045 nM | < 1 nM | 0.119 nM | 0.027 nM |
| COC(=O)N[C@H](C(=O)N1[C@H](c2nc3ccc4cc5c(cc4c3[nH]2)OCc2cc(-c3cnc(C4CCCN4C(=O)[C@H](NC(=O)OC)c4ccccc4)[nH]3)ccc2-5)C[C@@H]2CCC[C@@H]21)C(C)C (stereo partly drawn) [Example PN, methyl {(1R)-2-[2-(5-{2-[(2S,3aS,6aS)-1-{(2S)-2-[(methoxycarbonyl)amino]-3-methylbutanoyl}octahydrocyclopenta[b]pyrrol-2-yl]-1,11-dihydroisochromeno[4′,3′:6,7]naphtho[1,2-d]imidazol-9-yl}-1H-imidazol-2-yl)pyrrolidin-1-yl]-2-oxo-1-phenylethyl}carbamate] | < 1 nM | 0.015 nM | < 1 nM | 0.009 nM | < 1 nM | 0.03 nM | < 1 nM | 0.02 nM | 0.014 nM | < 1 nM | 0.016 nM | < 1 nM | 0.277 nM | 0.027 nM | < 1 nM | 0.035 nM | 0.014 nM |
| COC(=O)N[C@H](C(=O)N1[C@H](c2nc3ccc4cc5c(cc4c3[nH]2)OCc2cc(-c3cnc(C4CCCN4C(=O)[C@@H](NC(=O)OC)C4CCOCC4)[nH]3)ccc2-5)C[C@@H]2CCC[C@@H]21)C(C)C (stereo partly drawn) [Example PP, methyl [(1S)-2-[2-(5-{2-[(2S,3aS,6aS)-1-{(2S)-2-[(methoxycarbonyl)amino]-3-methylbutanoyl}octahydrocyclopenta[b]pyrrol-2-yl]-1,11-dihydroisochromeno[4′,3′:6,7]naphtho[1,2-d]imidazol-9-yl}-1H-imidazol-2-yl)pyrrolidin-1-yl]-2-oxo-1-(tetrahydro-2H-pyran-4-yl)ethyl]carbamate] | < 1 nM | 0.014 nM | < 1 nM | 0.011 nM | < 1 nM | 0.043 nM | < 1 nM | 0.011 nM | 0.027 nM | < 1 nM | 0.019 nM | < 1 nM | 0.403 nM | 0.061 nM | < 1 nM | 0.11 nM | 0.038 nM |
| COC[C@H]1C[C@@H](c2ncc(-c3ccc4c(c3)COc3cc5c(ccc6nc([C@@H]7CC[C@H](C)N7C(=O)[C@@H](NC(=O)OC)C(C)C)[nH]c65)cc3-4)[nH]2)N(C(=O)[C@@H](NC(=O)OC)C(C)C)C1 [Example PZ, Methyl {(2S)-1-[(2S,5S)-2-(9-{2-[(2S,4S)-1-{(2S)-2-[(methoxycarbonyl)amino]-3-methylbutanoyl}-4-(methoxymethyl)pyrrolidin-2-yl]-1H-imidazol-5-yl}-1,11-dihydroisochromeno[4′,3′:6,7]naphtho[1,2-d]imidazol-2-yl)-5-methylpyrrolidin-1-yl]-3-methyl-1-oxobutan-2-yl}carbamate] | < 1 nM | 0.009 nM | < 1 nM | 0.005 nM | < 1 nM | 0.057 nM | – | 0.025 nM | – | < 1 nM | – | < 1 nM | 1.71 nM | 0.175 nM | < 1 nM | 0.386 nM | 0.071 nM |
